From ChEMBL document CHEMBL5696441 (Nat Chem Biol, 2011)

Tests used:
[1] = molecular target: T1, Phosphorylase b kinase gamma catalytic chain, liver/testis isoform (Homo sapiens) (UniProt P15735); assay: Inhibition of PHKG2 (unknown origin) assessed as remaining activity at 1 uM by Kinome scan method relative to control
T1 sequence (whole entry): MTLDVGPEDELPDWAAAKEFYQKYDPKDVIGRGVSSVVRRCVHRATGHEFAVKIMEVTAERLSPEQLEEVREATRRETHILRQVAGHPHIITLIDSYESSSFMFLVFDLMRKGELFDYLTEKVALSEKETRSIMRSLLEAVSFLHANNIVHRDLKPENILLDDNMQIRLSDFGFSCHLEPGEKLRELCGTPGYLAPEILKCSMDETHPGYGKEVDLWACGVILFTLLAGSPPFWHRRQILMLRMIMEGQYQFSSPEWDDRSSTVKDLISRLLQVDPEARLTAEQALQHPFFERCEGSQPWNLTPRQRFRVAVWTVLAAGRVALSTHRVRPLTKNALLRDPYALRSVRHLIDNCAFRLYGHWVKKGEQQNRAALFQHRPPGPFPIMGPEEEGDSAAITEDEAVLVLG

[2] = system: Tyrosine-protein kinase ABL1 (Homo sapiens), P00519 [T315I]; assay: Inhibition of ABL1 T315I mutant (unknown origin) assessed as remaining activity at 1 uM by Kinome scan method relative to control
[3] = molecular target: Ribosomal protein S6 kinase alpha-3 (Homo sapiens) (UniProt P51812); assay: Inhibition of N-terminal kinase domain RPS6KA3 (unknown origin) assessed as remaining activity at 1 uM by Kinome scan method relative to control
Sequence of Ribosomal protein S6 kinase alpha-3 (Homo sapiens) (P51812 whole entry, the tested form may be a part): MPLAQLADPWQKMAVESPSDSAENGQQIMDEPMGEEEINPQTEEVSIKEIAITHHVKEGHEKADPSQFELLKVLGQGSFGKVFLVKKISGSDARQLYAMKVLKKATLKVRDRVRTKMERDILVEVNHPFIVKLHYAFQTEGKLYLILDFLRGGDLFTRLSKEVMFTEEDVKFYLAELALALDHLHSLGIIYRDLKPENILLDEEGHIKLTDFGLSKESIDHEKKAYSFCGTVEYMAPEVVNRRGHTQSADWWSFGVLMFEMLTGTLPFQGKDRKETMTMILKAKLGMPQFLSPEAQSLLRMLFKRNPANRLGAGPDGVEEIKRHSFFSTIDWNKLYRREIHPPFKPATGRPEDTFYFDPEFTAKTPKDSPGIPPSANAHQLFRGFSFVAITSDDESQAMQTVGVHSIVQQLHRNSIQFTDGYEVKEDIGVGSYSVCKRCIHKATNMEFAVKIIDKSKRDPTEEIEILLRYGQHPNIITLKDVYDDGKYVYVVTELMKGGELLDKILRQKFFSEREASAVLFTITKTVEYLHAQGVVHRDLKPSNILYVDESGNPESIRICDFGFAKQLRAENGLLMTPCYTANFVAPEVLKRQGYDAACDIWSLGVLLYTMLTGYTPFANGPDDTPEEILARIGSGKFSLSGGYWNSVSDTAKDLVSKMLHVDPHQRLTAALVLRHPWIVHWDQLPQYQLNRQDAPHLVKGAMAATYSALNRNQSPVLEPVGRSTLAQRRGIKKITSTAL

[4] = molecular target: Fibroblast growth factor receptor 1 (Homo sapiens) (UniProt P11362); assay: Inhibition of FGFR1 (unknown origin) assessed as remaining activity at 1 uM by Kinome scan method relative to control
Sequence of Fibroblast growth factor receptor 1 (Homo sapiens) (P11362 22-822 limits assumed): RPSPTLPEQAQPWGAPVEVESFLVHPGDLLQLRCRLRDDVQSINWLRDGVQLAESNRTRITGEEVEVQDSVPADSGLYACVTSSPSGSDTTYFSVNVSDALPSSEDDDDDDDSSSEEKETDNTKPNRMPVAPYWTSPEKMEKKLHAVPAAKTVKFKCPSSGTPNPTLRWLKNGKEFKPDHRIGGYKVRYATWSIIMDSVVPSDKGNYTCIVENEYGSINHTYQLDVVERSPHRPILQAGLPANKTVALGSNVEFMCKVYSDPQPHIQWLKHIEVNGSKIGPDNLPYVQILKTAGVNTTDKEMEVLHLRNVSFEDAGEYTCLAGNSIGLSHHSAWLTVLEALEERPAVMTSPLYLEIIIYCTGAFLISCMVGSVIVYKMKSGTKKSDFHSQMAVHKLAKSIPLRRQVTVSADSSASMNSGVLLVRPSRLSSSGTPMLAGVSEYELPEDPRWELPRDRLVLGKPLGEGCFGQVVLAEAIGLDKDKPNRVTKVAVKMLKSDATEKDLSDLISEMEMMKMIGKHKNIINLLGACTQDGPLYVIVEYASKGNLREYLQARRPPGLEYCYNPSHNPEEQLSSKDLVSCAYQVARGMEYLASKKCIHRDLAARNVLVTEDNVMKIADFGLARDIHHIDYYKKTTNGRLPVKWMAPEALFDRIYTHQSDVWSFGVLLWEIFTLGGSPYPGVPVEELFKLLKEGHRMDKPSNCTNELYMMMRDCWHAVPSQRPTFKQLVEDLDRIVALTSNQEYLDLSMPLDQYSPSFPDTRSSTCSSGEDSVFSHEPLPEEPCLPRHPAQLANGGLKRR

[5] = molecular target: Serine/threonine-protein kinase MRCK gamma (Homo sapiens) (UniProt Q6DT37); assay: Inhibition of DMPK2 (unknown origin) assessed as remaining activity at 1 uM by Kinome scan method relative to control
Sequence of Serine/threonine-protein kinase MRCK gamma (Homo sapiens) (Q6DT37 whole entry): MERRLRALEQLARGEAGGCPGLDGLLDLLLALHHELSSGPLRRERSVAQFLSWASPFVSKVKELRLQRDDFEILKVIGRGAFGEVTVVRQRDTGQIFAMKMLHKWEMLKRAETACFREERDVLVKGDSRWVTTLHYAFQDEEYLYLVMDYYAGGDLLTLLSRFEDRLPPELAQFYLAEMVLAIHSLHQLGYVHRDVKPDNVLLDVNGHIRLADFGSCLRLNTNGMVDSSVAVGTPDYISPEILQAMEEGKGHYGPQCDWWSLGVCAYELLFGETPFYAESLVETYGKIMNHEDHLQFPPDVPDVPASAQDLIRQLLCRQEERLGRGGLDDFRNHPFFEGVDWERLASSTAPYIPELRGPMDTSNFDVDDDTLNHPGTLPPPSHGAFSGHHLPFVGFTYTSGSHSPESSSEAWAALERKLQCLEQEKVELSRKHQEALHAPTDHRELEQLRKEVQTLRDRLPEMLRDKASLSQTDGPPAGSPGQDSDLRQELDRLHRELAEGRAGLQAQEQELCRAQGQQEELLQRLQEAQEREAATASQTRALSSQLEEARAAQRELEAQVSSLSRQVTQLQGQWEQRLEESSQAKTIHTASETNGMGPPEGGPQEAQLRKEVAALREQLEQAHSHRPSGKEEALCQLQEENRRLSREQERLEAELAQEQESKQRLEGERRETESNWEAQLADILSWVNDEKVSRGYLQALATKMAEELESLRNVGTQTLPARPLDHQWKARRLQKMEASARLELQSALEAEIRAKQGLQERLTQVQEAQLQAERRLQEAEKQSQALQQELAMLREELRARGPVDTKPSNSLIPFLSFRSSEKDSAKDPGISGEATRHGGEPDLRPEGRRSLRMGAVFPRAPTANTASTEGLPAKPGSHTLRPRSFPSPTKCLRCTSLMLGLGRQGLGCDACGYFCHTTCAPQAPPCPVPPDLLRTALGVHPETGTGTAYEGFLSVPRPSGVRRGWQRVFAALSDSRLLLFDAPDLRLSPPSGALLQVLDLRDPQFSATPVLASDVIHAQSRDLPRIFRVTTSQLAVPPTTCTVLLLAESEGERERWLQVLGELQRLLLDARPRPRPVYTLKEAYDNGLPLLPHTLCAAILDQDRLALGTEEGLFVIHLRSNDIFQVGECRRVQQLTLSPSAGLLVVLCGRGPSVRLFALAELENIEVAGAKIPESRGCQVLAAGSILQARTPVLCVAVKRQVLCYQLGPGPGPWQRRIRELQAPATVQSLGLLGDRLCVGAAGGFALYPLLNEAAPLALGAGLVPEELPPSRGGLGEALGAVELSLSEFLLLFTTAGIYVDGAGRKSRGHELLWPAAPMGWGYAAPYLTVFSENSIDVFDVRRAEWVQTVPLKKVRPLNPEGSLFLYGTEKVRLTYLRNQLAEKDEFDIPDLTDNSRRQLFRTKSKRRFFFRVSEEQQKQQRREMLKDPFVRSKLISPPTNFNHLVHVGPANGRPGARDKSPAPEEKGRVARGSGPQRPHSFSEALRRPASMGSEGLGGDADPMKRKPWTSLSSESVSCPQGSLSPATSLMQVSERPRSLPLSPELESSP

[6] = molecular target: Mitogen-activated protein kinase 8 (Homo sapiens) (UniProt P45983); assay: Inhibition of JNK1 (unknown origin) assessed as remaining activity at 1 uM by Kinome scan method relative to control
[7] = molecular target: Phosphatidylinositol 4,5-bisphosphate 3-kinase catalytic subunit gamma isoform (Homo sapiens) (UniProt P48736); assay: Inhibition of PIK3CG (unknown origin) assessed as remaining activity at 1 uM by Kinome scan method relative to control
Sequence of Phosphatidylinositol 4,5-bisphosphate 3-kinase catalytic subunit gamma isoform (Homo sapiens) (P48736 whole entry, looked up, canonical isoform): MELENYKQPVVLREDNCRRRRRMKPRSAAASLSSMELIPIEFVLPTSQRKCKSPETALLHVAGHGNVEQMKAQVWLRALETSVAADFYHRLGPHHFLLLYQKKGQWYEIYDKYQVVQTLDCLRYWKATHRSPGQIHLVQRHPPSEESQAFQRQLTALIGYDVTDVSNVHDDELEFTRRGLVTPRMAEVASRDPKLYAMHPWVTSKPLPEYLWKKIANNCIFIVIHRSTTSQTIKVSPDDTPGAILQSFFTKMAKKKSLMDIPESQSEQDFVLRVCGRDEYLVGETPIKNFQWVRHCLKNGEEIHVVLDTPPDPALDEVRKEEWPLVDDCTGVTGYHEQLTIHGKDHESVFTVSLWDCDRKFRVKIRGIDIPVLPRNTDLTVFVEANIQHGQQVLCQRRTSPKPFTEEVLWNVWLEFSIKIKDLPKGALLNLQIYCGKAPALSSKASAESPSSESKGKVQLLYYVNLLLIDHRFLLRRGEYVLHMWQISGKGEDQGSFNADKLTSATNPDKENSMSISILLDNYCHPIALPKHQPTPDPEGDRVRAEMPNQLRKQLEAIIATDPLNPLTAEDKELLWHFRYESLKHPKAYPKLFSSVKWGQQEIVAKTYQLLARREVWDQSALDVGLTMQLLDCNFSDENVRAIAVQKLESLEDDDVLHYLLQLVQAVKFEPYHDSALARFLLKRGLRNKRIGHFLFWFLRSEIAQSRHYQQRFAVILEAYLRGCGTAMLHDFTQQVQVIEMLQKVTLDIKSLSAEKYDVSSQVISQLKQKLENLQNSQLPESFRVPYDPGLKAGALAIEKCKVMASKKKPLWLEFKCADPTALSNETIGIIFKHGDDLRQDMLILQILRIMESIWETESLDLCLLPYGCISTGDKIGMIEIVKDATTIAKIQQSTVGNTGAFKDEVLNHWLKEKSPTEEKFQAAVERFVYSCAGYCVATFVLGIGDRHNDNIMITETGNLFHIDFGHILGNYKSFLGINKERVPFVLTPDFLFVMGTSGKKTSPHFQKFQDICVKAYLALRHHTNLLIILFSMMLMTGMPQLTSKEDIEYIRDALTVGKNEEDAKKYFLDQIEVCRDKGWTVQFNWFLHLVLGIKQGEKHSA

Homo sapiens = organism: Homo sapiens; assay: Inhibition of ACVR1a (unknown origin) assessed as remaining activity at 1 uM by Kinome scan method relative to control
[8] = molecular target: Serine/threonine-protein kinase RIO1 (Homo sapiens) (UniProt Q9BRS2); assay: Inhibition of RIOK1 (unknown origin) assessed as remaining activity at 1 uM by Kinome scan method relative to control
Sequence of Serine/threonine-protein kinase RIO1 (Homo sapiens) (Q9BRS2 whole entry): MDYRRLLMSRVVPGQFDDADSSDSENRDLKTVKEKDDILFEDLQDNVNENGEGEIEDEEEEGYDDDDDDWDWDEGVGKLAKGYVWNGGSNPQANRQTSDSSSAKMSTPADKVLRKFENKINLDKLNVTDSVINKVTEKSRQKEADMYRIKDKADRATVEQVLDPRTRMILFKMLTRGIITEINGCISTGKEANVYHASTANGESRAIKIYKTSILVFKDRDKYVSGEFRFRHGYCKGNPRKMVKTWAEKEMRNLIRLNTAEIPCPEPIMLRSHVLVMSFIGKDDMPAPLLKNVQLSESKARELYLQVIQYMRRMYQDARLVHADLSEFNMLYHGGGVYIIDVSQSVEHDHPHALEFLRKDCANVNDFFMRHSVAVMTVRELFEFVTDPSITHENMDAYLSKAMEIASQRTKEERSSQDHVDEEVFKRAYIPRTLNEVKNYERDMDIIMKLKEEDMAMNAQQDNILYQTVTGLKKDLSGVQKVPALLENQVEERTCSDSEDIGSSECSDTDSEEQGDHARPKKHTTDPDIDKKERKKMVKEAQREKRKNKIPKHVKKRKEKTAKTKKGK

[9] = molecular target: T2, Myosin light chain kinase (Homo sapiens) (UniProt Q32MK0); assay: Inhibition of MLCK (unknown origin) assessed as remaining activity at 1 uM by Kinome scan method relative to control
T2 sequence (whole entry): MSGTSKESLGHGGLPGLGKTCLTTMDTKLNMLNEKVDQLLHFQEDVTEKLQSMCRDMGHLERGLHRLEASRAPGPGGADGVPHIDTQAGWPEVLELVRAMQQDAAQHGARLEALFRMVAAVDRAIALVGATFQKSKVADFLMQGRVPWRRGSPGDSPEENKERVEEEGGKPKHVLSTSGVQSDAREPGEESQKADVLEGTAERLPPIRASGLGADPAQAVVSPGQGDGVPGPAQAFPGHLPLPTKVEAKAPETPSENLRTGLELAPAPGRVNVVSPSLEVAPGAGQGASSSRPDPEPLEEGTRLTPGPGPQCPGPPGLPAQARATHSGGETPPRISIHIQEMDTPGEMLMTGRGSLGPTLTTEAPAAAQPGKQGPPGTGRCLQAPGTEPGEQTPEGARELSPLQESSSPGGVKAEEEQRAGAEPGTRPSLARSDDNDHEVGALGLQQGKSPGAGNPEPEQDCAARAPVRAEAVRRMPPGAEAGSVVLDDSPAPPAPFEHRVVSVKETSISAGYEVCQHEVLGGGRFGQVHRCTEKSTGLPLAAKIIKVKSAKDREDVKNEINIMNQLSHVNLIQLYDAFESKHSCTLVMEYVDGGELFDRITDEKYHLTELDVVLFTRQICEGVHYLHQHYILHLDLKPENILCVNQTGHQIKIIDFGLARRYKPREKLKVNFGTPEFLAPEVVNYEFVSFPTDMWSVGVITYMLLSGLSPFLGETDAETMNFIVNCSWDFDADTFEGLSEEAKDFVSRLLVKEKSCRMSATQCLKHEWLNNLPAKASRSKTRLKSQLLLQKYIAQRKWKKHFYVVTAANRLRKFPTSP

[10] = molecular target: T3, Serine/threonine-protein kinase DCLK2 (Homo sapiens) (UniProt Q8N568); assay: Inhibition of DCAMKL2 (unknown origin) assessed as remaining activity at 1 uM by Kinome scan method relative to control
T3 sequence (whole entry): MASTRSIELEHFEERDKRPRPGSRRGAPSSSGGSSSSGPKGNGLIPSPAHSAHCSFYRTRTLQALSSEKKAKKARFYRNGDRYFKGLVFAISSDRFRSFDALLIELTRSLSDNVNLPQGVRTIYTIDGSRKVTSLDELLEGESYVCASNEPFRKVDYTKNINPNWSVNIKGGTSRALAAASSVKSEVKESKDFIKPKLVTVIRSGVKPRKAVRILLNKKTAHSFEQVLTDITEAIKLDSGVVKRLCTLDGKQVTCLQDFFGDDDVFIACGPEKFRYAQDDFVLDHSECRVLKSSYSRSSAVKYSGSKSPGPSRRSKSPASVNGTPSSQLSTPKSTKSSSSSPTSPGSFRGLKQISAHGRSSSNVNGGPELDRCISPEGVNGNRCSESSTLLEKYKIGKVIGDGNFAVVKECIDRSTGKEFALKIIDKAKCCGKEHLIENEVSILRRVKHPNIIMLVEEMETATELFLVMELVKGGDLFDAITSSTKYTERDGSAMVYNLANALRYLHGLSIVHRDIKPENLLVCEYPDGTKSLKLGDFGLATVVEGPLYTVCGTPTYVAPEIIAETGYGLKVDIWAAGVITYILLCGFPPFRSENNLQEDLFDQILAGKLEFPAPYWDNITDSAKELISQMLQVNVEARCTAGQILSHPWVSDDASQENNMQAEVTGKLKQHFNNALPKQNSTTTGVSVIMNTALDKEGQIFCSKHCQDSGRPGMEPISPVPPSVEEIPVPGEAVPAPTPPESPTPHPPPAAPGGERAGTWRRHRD

Row | SMILES | Activity [1] [%] | Activity [2] [%] | Activity [3] [%] | Activity [4] [%] | Activity [5] [%] | Activity [6] [%] | Activity [7] [%] | Activity (Homo sapiens) [%] | Activity [8] [%] | Activity [9] [%] | Activity [10] [%]
1 | Nc1ccccc1Nc1ccc2c(c1)CCc1ccccc1C2=O | 98 | 83 | 97 | 94 | 92 | 97 | 86 | 98 | 94 | 85 | 98
2 | O=C1c2ccc(Nc3ccc(F)cc3F)cc2CCc2ccc(OC[C@H](O)CO)cc21 [Skepinone-L] | 96 | 94 | 93 | 90 | 100 | 75 | 100 | 98 | 95 | 100 | 88
